Assay results as given in ChEMBL document CHEMBL1129230, “Inhibitory effects of scopadulcic acid B and its derivatives on bone resorption and osteoclast formation in vitro” (1996).

Experiments:
Format in all cases: functional
Mus musculus [1] = species on record: Mus musculus; assay: Inhibition of PTH-stimulated osteoclast-like cell formation at concentration 2 uM
Mus musculus [2] = species on record: Mus musculus; assay: Inhibition of PTH-stimulated bone resorption at concentration of 5 uM
Mus musculus [3] = species on record: Mus musculus; assay: Inhibition of PTH-stimulated osteoclast-like cell formation at concentration 5 uM
Mus musculus [4] = species on record: Mus musculus; assay: Inhibition of PTH-stimulated bone resorption at concentration of 10 uM
Mus musculus [5] = species on record: Mus musculus; assay: Inhibition of PTH-stimulated osteoclast-like cell formation at concentration 10 uM
Mus musculus [6] = species on record: Mus musculus; assay: Inhibition of PTH-stimulated bone resorption at concentration of 2 uM
Mus musculus [7] = species on record: Mus musculus; assay: compound was evaluated in vitro for the inhibition of PTH-stimulated osteoclast-like cell formation at concentration 0.05 uM
Mus musculus [8] = species on record: Mus musculus; assay: compound was evaluated in vitro for the inhibition of PTH-stimulated osteoclast-like cell formation at concentration 0.1 uM
Mus musculus [9] = species on record: Mus musculus; assay: compound was evaluated in vitro for the inhibition of PTH-stimulated osteoclast-like cell formation at concentration 0.5 uM
Mus musculus [10] = species on record: Mus musculus; assay: compound was evaluated in vitro for the inhibition of PTH-stimulated osteoclast-like cell formation at concentration 10 uM
Mus musculus [11] = species on record: Mus musculus; assay: compound was evaluated in vitro for the inhibition of PTH-stimulated osteoclast-like cell formation at concentration 5 uM
Mus musculus [12] = species on record: Mus musculus; assay: compound was evaluated in vitro for the inhibition of PTH-stimulated osteoclast-like cell formation at concentration 2 uM

SMILES	inhibition at 2 µM (Mus musculus [1]) [%]	Inhibition (Mus musculus [2]) [%]	inhibition at 5 µM (Mus musculus [3]) [%]	Inhibition (Mus musculus [4]) [%]	inhibition at 10 µM (Mus musculus [5]) [%]	Inhibition (Mus musculus [6]) [%]	inhibition at 0.05 µM (Mus musculus [7]) [%]	inhibition at 0.1 µM (Mus musculus [8]) [%]	inhibition at 0.5 µM (Mus musculus [9]) [%]	inhibition at 10 µM (Mus musculus [10]) [%]	inhibition at 5 µM (Mus musculus [11]) [%]	inhibition at 2 µM (Mus musculus [12]) [%]
C[C@]12CC[C@]3(C1)[C@@H](C[C@@H](OC(=O)c1ccccc1)[C@H]1[C@](C)(C(=O)O)CCC[C@@]13C)C[C@@H]2O	24	39	75	70	93	35	–	–	–	–	–	–
C[C@]12CC[C@]3(C1)C(CC2=O)C[C@@H](O)C1[C@](C)(C(=O)O)CCC[C@@]13C (stereo partly drawn)	0	92	10	94	20	43	–	–	–	–	–	–
CC(=O)O[C@H]1C[C@@H]2C[C@@H](OC(=O)c3ccccc3)[C@H]3[C@](C)(C(=O)O)CCC[C@]3(C)[C@]23CC[C@@]1(C)C3	–	18	–	8	–	21	–	–	–	–	–	–
C[C@]12CC[C@]3(C1)[C@H](C/C2=N\O)C[C@@H](OC(=O)c1ccccc1)[C@H]1[C@](C)(C(=O)O)CCC[C@@]13C	–	66	–	90	–	28	–	–	–	–	–	–
CC(=O)O[C@@H]1C[C@@H]2C[C@@H](OC(=O)c3ccccc3)[C@H]3[C@](C)(C(=O)O)CCC[C@]3(C)[C@]23CC[C@@]1(C)C3	55	26	72	42	79	27	–	–	–	–	–	–
C[C@]12CC[C@]3(C1)[C@@H](C[C@@H](O)[C@H]1[C@](C)(CO)CCC[C@@]13C)C[C@@H]2O	–	-25	–	-4	–	-5	–	–	–	–	–	–
COC(=O)[C@]1(C)CCC[C@@]2(C)[C@H]1[C@H](OC(=O)c1ccccc1)C[C@H]1CC(=O)[C@@]3(C)CC[C@]12C3	70	74	91	110	118	78	–	–	–	–	–	–
CC(=O)OC[C@]1(C)CCC[C@@]2(C)[C@H]1[C@H](OC(=O)c1ccccc1)C[C@H]1CC(=O)[C@@]3(C)CC[C@]12C3	45	107	90	125	105	12	–	–	–	–	–	–
C[C@]12CC[C@]3(C1)[C@@H](C[C@@H](O)[C@H]1[C@](C)(CO)CCC[C@@]13C)C[C@H]2O	–	6	–	-17	–	-8	–	–	–	–	–	–
CC(=O)O[C@@H]1C[C@H]2CC(=O)[C@@]3(C)CC[C@@]2(C3)[C@@]2(C)CCC[C@@](C)(C(=O)O)[C@H]12	-8	40	27	47	37	33	–	–	–	–	–	–
COC(=O)[C@]1(C)CCC[C@@]2(C)[C@H]1[C@H](OC(=O)c1ccccc1)C[C@H]1C[C@@H](OC(C)=O)[C@@]3(C)CC[C@]12C3	60	40	70	37	112	55	–	–	–	–	–	–
C[C@]12CC[C@]3(C1)[C@H](CC2=O)C[C@@H](OC(=O)c1ccccc1)[C@H]1[C@@](CO)(C(=O)O)CCC[C@@]13C [SCOPADULCIC ACID A]	–	24	–	-14	–	46	–	–	–	–	–	–
CC(=O)OC[C@]1(C)CCC[C@@]2(C)C1[C@H](O)CC1C[C@H](OC(C)=O)[C@@]3(C)CC[C@]12C3 (stereo partly drawn)	–	23	–	11	–	1	–	–	–	–	–	–
C[C@]12CC[C@]3(C1)[C@H](CC2=O)C[C@@H](OC(=O)c1ccccc1)[C@H]1[C@](C)(C(=O)O)CCC[C@@]13C [SCOPADULCIC ACID B]	59	76	74	94	87	28	–	–	–	–	–	–
C[C@]12CC[C@]3(C1)[C@H](C[C@H]2O)C[C@@H](OC(=O)c1ccccc1)[C@H]1[C@](C)(C(=O)O)CCC[C@@]13C	17	40	87	37	104	45	–	–	–	–	–	–
COC(=O)[C@]1(C)CCC[C@@]2(C)[C@H]1[C@H](OC(=O)c1ccccc1)C[C@H]1C[C@H](OC(C)=O)[C@@]3(C)CC[C@]12C3	81	51	109	55	134	38	–	–	–	–	–	–
COC(=O)[C@]1(C)CCC[C@@]2(C)[C@H]1[C@H](OC(=O)c1ccccc1)C[C@H]1C[C@H](O)[C@@]3(C)CC[C@]12C3	–	-17	–	-10	–	-23	–	–	–	–	–	–
C[C@]12CC[C@]3(C1)C(CC2=O)C[C@@H](OC(=O)c1ccccc1)C1[C@](C)(CO)CCC[C@@]13C (stereo partly drawn)	137	99	137	99	137	106	44	115	137	–	–	–
COC(=O)[C@]1(C)CCC[C@@]2(C)[C@H]1[C@H](OC(=O)c1ccccc1)C[C@H]1C[C@@H](O)[C@@]3(C)CC[C@]12C3	–	29	–	49	–	22	–	–	–	–	–	–
C[C@@]1(CO)CCC[C@@]2(C)C1[C@H](OC(=O)c1ccccc1)C[C@H]1C[C@H](O)[C@@]3(C)CC[C@]12C3 (stereo partly drawn)	–	99	–	–	–	-51	–	–	–	94	75	24
C[C@@]1(CO)CCC[C@@]2(C)C1[C@H](OC(=O)c1ccccc1)C[C@H]1C[C@@H](O)[C@@]3(C)CC[C@]12C3 (stereo partly drawn)	17	95	87	–	105	-60	–	–	–	–	–	–
